pIC50: −log10 of the molar value.
The compounds below were run against STING (Homo sapiens, UniProt Q86WV6) (assay: STING antagonist activity, cell-based ISG54 promoter-reporter luciferase measurement of IRF activity (THP-1 dual / RAW-ISG cells)). Conditions: Antagonist Activity of Exemplary Compounds; cell line and agonist not given.
STING, sequence (Q86WV6 whole entry): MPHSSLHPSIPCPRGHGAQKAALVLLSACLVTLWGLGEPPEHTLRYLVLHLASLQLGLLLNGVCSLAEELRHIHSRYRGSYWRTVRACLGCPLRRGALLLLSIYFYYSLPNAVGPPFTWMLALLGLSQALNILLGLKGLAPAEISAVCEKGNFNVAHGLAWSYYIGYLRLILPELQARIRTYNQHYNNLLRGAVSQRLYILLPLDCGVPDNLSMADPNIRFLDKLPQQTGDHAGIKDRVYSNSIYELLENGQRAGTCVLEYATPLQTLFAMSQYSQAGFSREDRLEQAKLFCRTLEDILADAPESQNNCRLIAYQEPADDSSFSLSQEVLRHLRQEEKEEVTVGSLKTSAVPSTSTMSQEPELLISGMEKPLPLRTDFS
Protocol: THP-1 dual cells (InvivoGen) were cultured under 5% CO2 at 37° C. in RPMI containing 10% fetal bovine serum (FBS), 100 IU mL-1 penicillin and 100 μg mL-1 streptomycin. RAW-ISG cells (InvivoGen) were cultured under 5% CO2 at 37° C. in DMEM containing 10% fetal bovine serum (FBS), 100 IU mL-1 penicillin and 100 μg mL-1 streptomycin. THP-1 dual cells were seeded into the 96 well assay plate on the day of assay whereas RAW cells were seeded into the 96 well assay plate 18 hours before the assay.
(§1) 50,000 cells seeded in a 96-well flat bottom white assay plate were treated with different concentrations (10 uM to 0.01 uM) of compounds for 1 h followed by STING induction with either 30 nM SB 11285 or 10 ug/mL 2′-3′ cGAMP. The cells were then incubated for 20 hours @ 37° C. in CO2 incubator before measuring IRF activation by using Quanti-Luc (InvivoGen). The % inhibition was calculated as 100−{[(luminescence of COI treated well/luminescence of non-COI treated well)/100]×100}. IC50 was calculated by plotting in Xlfit.
as §1, with “1 μM” for “30 nM”
THP1-Dual-WT cells (InvivoGen) were plated into 96-well flat bottom plate at 5×10^4 cells/140 μL/well in triplicate. Cells were then treated with diluted antagonist compounds at 10 μL/well for 1 h, followed by treatment with compounds or 2′3′-cGAMP/lipo mixture for 18 h. The levels of IRF activity were determined using Quanti-luc (InvivoGen) and calculated against IRF activity in DMSO-treated cells. IC50 and CC50 values were calculated using Xlfit.
In the case of `CCN(CC)c1nc2nc(Cl)nc(Cl)c2n1CCCCCCCCCCCCCCCC(=O)OC` [Compound 117, methyl 16-(2,6-dichloro-8-(diethylamino)-7H-purin-7-yl)hexadecanoate], the pIC50 was 5.00 to 5.30.

Same assay, conditions: Antagonist Activity of Exemplary Compounds; cell line and agonist not given; read-out: IC50
Work on `Cc1nc2c(Cl)nc(Cl)nc2n1CCCCCCCCCCCCCCCc1nnnn1C` [Compound 100, 2,6-dichloro-8-methyl-9-(15-(1-methyl-1H-tetrazol-5-yl)pentadecyl)-9H-purine] yielded a pIC50 of 5.00 to 5.30. `Cc1nc2nc(Cl)nc(Cl)c2n1CCCCCCCCCCCCCCCc1nnnn1C` [Compound 101, 2,6-dichloro-8-methyl-7-(15-(1-methyl-1H-tetrazol-5-yl)pentadecyl)-7H-purine] was tested, and the pIC50 was 6.00 to 9.00. Compound `Cc1nc2nc(Cl)nc(Cl)c2n1CCCCCCCCCCN1CCOCC1` [Compound 102, 4-(10-(2,6-dichloro-8-methyl-7H-purin-7-yl)decyl)morpholine] has a pIC50 of 6.00 to 9.00. `Cc1nc2nc(Cl)nc(Cl)c2n1C/C=C/Cn1c(C)nc2nc(Cl)nc(Cl)c21` [Compound 103, (E)-1,4-bis(2,6-dichloro-8-methyl-7H-purin-7-yl)but-2-ene] showed a pIC50 of 5.00 to 5.30. Work on `Cc1nc2nc(Cl)nc(Cl)c2n1CCCCCCCCCCCCCCCC(=O)OC[C@H](O)CO` [Compound 104, (R)-2,3-dihydroxypropyl 16-(2,6-dichloro-8-methyl-7H-purin-7-yl)hexadecanoate] yielded a pIC50 of 6.00 to 9.00. Work on `Cc1nc2nc(Cl)nc(Cl)c2n1CCCCCCCCCCCCCCCCN1CCOCC1` [Compound 105, 4-(16-(2,6-dichloro-8-methyl-7H-purin-7-yl)hexadecyl)morpholine] yielded a pIC50 of 6.00 to 9.00. With `Cc1nc2nc(Cl)nc(Cl)c2n1CCCCCCCCCCCCCCCC(=O)OC(CO)CO` [Compound 106, 1,3-dihydroxypropan-2-yl 16-(2,6-dichloro-8-methyl-7H-purin-7-yl)hexadecanoate] the pIC50 was 5.30 to 6.00. For `Cc1nc2nc(Cl)nc(Cl)c2n1CCCCCCCCCCCCCCCC(=O)OC[C@@H](O)CO` [Compound 107, (S)-2,3-dihydroxypropyl 16-(2,6-dichloro-8-methyl-7H-purin-7-yl)hexadecanoate], the pIC50 was 5.30 to 6.00. Compound `COC(=O)CCCCCCCCCCCCCCCn1c(C)nc2nc(Cl)nc(OCCN(C)C)c21` [Compound 108, methyl 16-(2-chloro-6-(2-(dimethylamino)ethoxy)-8-methyl-7H-purin-7-yl)hexadecanoate] has a pIC50 of 5.30 to 6.00. For `Cc1nc2nc(Cl)nc(S(C)(=O)=O)c2n1CCCCCCCCCCCCCCCC(=O)OC(C)C` [Compound 109, isopropyl 16-(2-chloro-8-methyl-6-(methylsulfonyl)-7H-purin-7-yl)hexadecanoate], the pIC50 was 6.00 to 9.00. `Cc1nc2nc(Cl)nc(Cl)c2n1CCCCCCCCCCCCCCCCP(=O)(O)O` [Compound 110, (16-(2,6-dichloro-8-methyl-7H-purin-7-yl)hexadecyl)phosphonic acid] was tested, and the pIC50 was less than 4.70. Compound `Cc1nc2nc(Cl)nc(S(=O)(=O)C(C)C)c2n1CCCCCCCCCCCCCCCCO` [Compound 111, 16-(2-chloro-6-(isopropylsulfonyl)-8-methyl-7H-purin-7-yl)hexadecan-1-ol] has a pIC50 of 6.00 to 9.00. `CC1Nc2nc(Cl)nc(S(=O)(=O)C(C)C)c2N1CCCCCCCCCCCCCCCCO` (stereo not drawn) [Compound 112, 16-(2-chloro-6-(isopropylsulfonyl)-8-methyl-8,9-dihydro-7H-purin-7-yl)hexadecan-1-ol] gave a pIC50 of 5.30 to 6.00. Compound `Cc1nc2nc(Cl)nc(Cl)c2n1CCCCCCCCCCN1CCN(C)CC1` [Compound 113, 2,6-dichloro-8-methyl-7-(10-(4-methylpiperazin-1-yl)decyl)-7H-purine] has a pIC50 of 5.30 to 6.00. Work on `COC(=O)CCCCCCCCCCCCCCCn1c(CO)nc2nc(Cl)nc(S(=O)(=O)C(C)C)c21` [Compound 114, Methyl 16-(2-chloro-8-(hydroxymethyl)-6-(isopropylsulfonyl)-7H-purin-7-yl)hexadecanoate] yielded a pIC50 of 6.00 to 9.00. In the case of `Cc1nc2nc(Cl)nc(S(=O)(=O)C(C)C)c2n1CCCCCCCCCC[N+]1([O-])CCOCC1` [Compound 115, 4-(10-(2-chloro-6-(isopropylsulfonyl)-8-methyl-7H-purin-7-yl)decyl)-4-(11-oxidanyl)-4l4-morpholine], the pIC50 was less than 4.70. For `COC(=O)CCCn1c(C)nc2nc(Cl)nc(Cl)c21` [Compound 116, methyl 4-(2,6-dichloro-8-methyl-7H-purin-7-yl)butanoate], the pIC50 was 5.00 to 5.30. For `COC(=O)CCCn1c(C)nc2nc(Cl)nc(S(=O)(=O)C(C)C)c21` [Compound 118, methyl 4-(2-chloro-6-(isopropylsulfonyl)-8-methyl-7H-purin-7-yl)butanoate], the pIC50 was 5.30 to 6.00. With `CCCCCCCCCCCCCCCCn1c(CO)nc2nc(Cl)nc(Cl)c21` [Compound 119, (2,6-dichloro-7-hexadecyl-7H-purin-8-yl)methanol] the pIC50 was 6.00 to 9.00. Compound `COC(=O)CCCCn1c(C)nc2nc(Cl)nc(S(=O)(=O)C(C)C)c21` [Compound 121, methyl 5-(2-chloro-6-(isopropylsulfonyl)-8-methyl-7H-purin-7-yl)pentanoate] has a pIC50 of 5.30 to 6.00. `CCCCCCCCCCCCCCCCn1c(CO)nc2nc(Cl)nc(S(=O)(=O)C(C)C)c21` [Compound 122, (2-chloro-7-hexadecyl-6-(isopropylsulfonyl)-7H-purin-8-yl)methanol] was tested, and the pIC50 was 6.00 to 9.00. `COC(=O)CCCCCCCCCn1c(C)nc2nc(Cl)nc(Cl)c21` [Compound 123, Methyl 10-(2,6-dichloro-8-methyl-7H-purin-7-yl)decanoate] showed a pIC50 of 5.30 to 6.00. For `COC(=O)CCCCCCCCCn1c(C)nc2nc(Cl)nc([S+]([O-])C(C)C)c21` (stereo not drawn) [Compound 124, methyl 10-(2-chloro-6-(isopropylsulfinyl)-8-methyl-7H-purin-7-yl)decanoate], the pIC50 was 6.00 to 9.00. With `COC(=O)CCCCCCCCCn1c(C)nc2nc(Cl)nc(S(=O)(=O)C(C)C)c21` [Compound 125, Methyl 10-(2-chloro-6-(isopropylsulfonyl)-8-methyl-7H-purin-7-yl)decanoate] the pIC50 was 5.30 to 6.00. With `COC(=O)CCCCCCCCCCCCCCCn1c(C)nc2nc(C#N)nc(C#N)c21` [Compound 126, Methyl 16-(2,6-dicyano-8-methyl-7H-purin-7-yl)hexadecanoate] the pIC50 was less than 4.70. `Cc1nc2nc(Cl)nc([S+]([O-])C(C)C)c2n1CCCCCCCCCC[N+]1([O-])CCOCC1` (stereo not drawn) [Compound 127, 4-(10-(2-chloro-6-(isopropylsulfinyl)-8-methyl-7H-purin-7-yl)decyl)morpholine 4-oxide] showed a pIC50 of less than 4.70. In the case of `COC(=O)CCCCCCCCCCCCCCCn1c(C)nc2nc(Cl)nc([S+]([O-])C(C)C)c21` (stereo not drawn) [Compound 128, methyl 16-(2-chloro-6-(isopropylsulfinyl)-8-methyl-7H-purin-7-yl)hexadecanoate], the pIC50 was 6.00 to 9.00. `Cc1nc2nc(Cl)nc(SC(C)C)c2n1CCCCCCCCCC[N+]1([O-])CCOCC1` [Compound 129, 4-(10-(2-chloro-6-(isopropylthio)-8-methyl-7H-purin-7-yl)decyl)morpholine 4-oxide] gave a pIC50 of less than 4.70. Compound `COC(=O)CCCCCO[C@@H]1CCN(CCCCCCn2c(C)nc3nc(Cl)nc(Cl)c32)C1` [Compound 130] has a pIC50 of 6.00 to 9.00. In the case of `CNC(=O)CCCCCCCCCCCCCCCn1c(C)nc2nc(Cl)nc(S(=O)(=O)C(C)C)c21` [Compound 131, 16-(2-chloro-6-(isopropylsulfonyl)-8-methyl-7H-purin-7-yl)-N-methylhexadecaanamide], the pIC50 was 6.00 to 9.00. `Cc1nc2nc(Cl)nc(S(=O)(=O)C(C)C)c2n1CCCCCCCCCCCCCCCC(=O)OC[C@H]1COC(C)(C)O1` [Compound 132, (R)-(2,2-dimethyl-1,3-dioxolan-4-yl)methyl 16-(2-chloro-6-(isopropylsulfonyl)-8-methyl-7H-purin-7-yl)hexadecanoate] was tested, and the pIC50 was 6.00 to 9.00. Work on `Cc1nc2nc(Cl)nc(S(=O)(=O)C(C)C)c2n1CCCCCCCCCCCCCCCC(=O)OC[C@H](O)CO` [Compound 133, (R)-2,3-dihydroxypropyl 16-(2-chloro-6-(isopropylsulfonyl)-8-methyl-7H-purin-7-yl)hexadecanoate] yielded a pIC50 of 5.30 to 6.00. `Cc1nc2nc(Cl)nc(S(=O)(=O)C(C)C)c2n1CCCCCCCCCCCCCCCC(=O)OC[C@@H]1COC(C)(C)O1` [Compound 134, (S)-(2,2-dimethyl-1,3-dioxolan-4-yl)methyl 16-(2-chloro-6-(isopropylsulfonyl)-8-methyl-7H-purin-7-yl)hexadecanoate] gave a pIC50 of 6.00 to 9.00. `Cc1nc2nc(Cl)nc(S(=O)(=O)C(C)C)c2n1CCCCCCCCCCCCCCCC(=O)OC[C@@H](O)CO` [Compound 135, (S)-2,3-dihydroxypropyl 16-(2-chloro-6-(isopropylsulfonyl)-8-methyl-7H-purin-7-yl)hexadecanoate] showed a pIC50 of 6.00 to 9.00. For `Cc1nc2nc(Cl)nc([S+]([O-])C(C)C)c2n1CCCCCCCCCCN1CCOCC1` (stereo not drawn) [Compound 136, 4-(10-(2-chloro-6-(isopropylsulfinyl)-8-methyl-7H-purin-7-yl)decyl)morpholine], the pIC50 was 6.00 to 9.00.

From patent publication US20220168309A1 (F-STAR THERAPEUTICS, INC., priority 2019, published 2022)
